Experimental data published in patent US10093660B2, “Sulfoximine substituted quinazolines for pharmaceutical compositions” (EVOTEC INTERNATIONAL GMBH, priority 2013, dated 2018).

Experiments:
MNK2a = MNK2a (Homo sapiens (Human), UniProt Q9HBH9); assay: MNK2a in vitro kinase assay (Assay 2), ADP-Glo; type: biochemical; settings: assay 2; read-out: MNK2 IC50
From the text: B. MNK2a In Vitro Kinase Assay (Assay 2)

MNK1a = MNK1a (Homo sapiens (Human), UniProt Q9BUB5); assay: MNK1 in vitro kinase assay (Assay 3), Z'-LYTE; type: biochemical; settings: for inhibition at 1 µM: compound concentration of 1 μM, read-out: MNK1 % INH
From the text: C. MNK1 In Vitro Kinase Assay (Assay 3)
MNK1 Data can be obtained from the MNK1 Z′-LYTE® assay. The MNK1 Z′-LYTE® screening protocol and assay conditions are also described on www.invitrogen.com.
The assay is described as follows:
The Z′-LYTE® biochemical assay employs a fluorescence-based, coupled-enzyme format and is based on the differential sensitivity of phosphorylated and non-phosphorylated peptides to proteolytic cleavage. The peptide substrate is labeled with two fluorophores—one at each end—that make up a FRET pair.
In the primary reaction, the kinase transfers the gamma-phosphate of ATP to a single tyrosine, serine or threonine residue in a synthetic FRET-peptide. In the secondary reaction, a site-specific protease recognizes and cleaves non-phosphorylated FRET-peptides. Phosphorylation of FRET-peptides suppresses cleavage by the Development Reagent. Cleavage disrupts FRET between the donor (i.e., coumarin) and acceptor (i.e., fluorescein) fluorophores on the FRET-peptide, whereas uncleaved, phosphorylated FRET-peptides maintain FRET. A ratiometric method, which calculates the ratio (the Emission Ratio) of donor emission to acceptor emission after excitation of the donor fluorophore at 400 nm, is used to quantitate reaction progress, as shown in the equation below.
The 2×MKNK1 (MNK1) mixture is prepared in 50 mM HEPES pH 7.5, 0.01% BRIJ-35, 10 mM MgCl2, 4 mM MnCl2, 1 mM EGTA, 2 mM DTT.
The Test Compounds are screened in 1% DMSO (final) in the well.
All Peptide/Kinase Mixtures are diluted to a 2× working concentration in the MNK1 Kinase Buffer.
All ATP Solutions are diluted to a 4× working concentration in Kinase Buffer (50 mM HEPES pH 7.5, 0.01% BRIJ-35, 10 mM MgCl2, 1 mM EGTA).
Development Reagent Solution:
The Development Reagent is diluted in Development Buffer
1. 2.5 μL—4× Test Compound
2. 5 μL—2× Peptide/Kinase Mixture
5. 60-minute Kinase Reaction incubation at room temperature
6. 5 μL—Development Reagent Solution
8. 60-minute Development Reaction incubation at room temperature
9. Read on fluorescence plate reader and analyze the data
Control C0%=Average Coumarin emission signal of the 0% Phos. Control F100%=Average Fluorescein emission signal of the 100% Phos. Control F0%=Average Fluorescein emission signal of the 0% Phos. Control Graphing Software
SelectScreen® Kinase Profiling Service uses XLfit from IDBS. […] The activity of MNK proteins can be assayed also by other in vitro kinase assay formats. […] In general, MNK kinase assays can be performed such that a MNK substrate such as a protein or a peptide, which may or may not include modifications as further described below, or others are phosphorylated by MNK proteins having enzymatic activity in vitro. The activity of a candidate agent can then be determined via its ability to decrease the enzymatic activity of the MNK protein. The kinase activity may be detected by change of the chemical, physical or immunological properties of the substrate due to phosphorylation.

Sequence of MNK1a (Q9BUB5 other isoform, or with tags, fused parts or gaps): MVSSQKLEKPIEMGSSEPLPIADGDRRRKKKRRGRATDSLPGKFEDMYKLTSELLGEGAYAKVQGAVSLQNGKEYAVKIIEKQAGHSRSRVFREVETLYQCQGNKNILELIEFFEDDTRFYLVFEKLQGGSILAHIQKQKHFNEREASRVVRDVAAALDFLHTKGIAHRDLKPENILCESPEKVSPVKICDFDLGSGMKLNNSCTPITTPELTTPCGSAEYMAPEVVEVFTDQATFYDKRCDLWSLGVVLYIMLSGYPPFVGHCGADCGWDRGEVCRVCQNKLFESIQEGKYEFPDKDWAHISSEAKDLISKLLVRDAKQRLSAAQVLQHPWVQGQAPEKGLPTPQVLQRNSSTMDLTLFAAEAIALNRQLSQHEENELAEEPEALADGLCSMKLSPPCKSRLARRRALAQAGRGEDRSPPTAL
Sequence of MNK2a (Q9HBH9 whole entry): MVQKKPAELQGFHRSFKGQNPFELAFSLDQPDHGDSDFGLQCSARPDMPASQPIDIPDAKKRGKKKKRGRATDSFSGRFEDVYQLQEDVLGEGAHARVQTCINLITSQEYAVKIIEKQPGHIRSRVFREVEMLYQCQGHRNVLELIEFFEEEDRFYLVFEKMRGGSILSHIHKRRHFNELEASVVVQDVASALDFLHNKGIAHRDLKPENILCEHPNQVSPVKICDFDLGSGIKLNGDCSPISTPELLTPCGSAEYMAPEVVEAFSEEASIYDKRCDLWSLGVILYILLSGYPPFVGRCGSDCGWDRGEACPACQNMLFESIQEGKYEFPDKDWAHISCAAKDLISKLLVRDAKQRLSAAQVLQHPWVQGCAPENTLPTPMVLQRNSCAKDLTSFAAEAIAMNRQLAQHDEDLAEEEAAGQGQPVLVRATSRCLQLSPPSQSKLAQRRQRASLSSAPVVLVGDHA

SMILES | IC50 (MNK2a) [nM] | inhibition at 1 µM (MNK1a) [%] | IC50 (MNK1a) [nM]
Cc1cc(N=S(C)(=O)C(C)(C)C)cc2ncnc(Nc3ccc(F)cc3O[C@@H]3COC[C@@H]3O)c12 (mixture of isomers) [Example 2.68] | 11 | 94 | 
CCN1C[C@@H](OC)[C@H](Oc2cc(F)ccc2Nc2ncnc3cc(N=S4(=O)CCCC4)cc(C)c23)C1 [Example 4.3] | 40 | 54 | 
Cc1cc(N=S2(=O)CCCC2)cc2ncnc(Nc3cccnc3O[C@@H]3CN(C)C[C@H]3O)c12 [Example 2.18] | 49 |  | 359
Cc1cc(N=S2(=O)CCCC2)cc2ncnc(Nc3cccnc3O[C@@H]3CN(S(C)(=O)=O)C[C@H]3O)c12 [Example 2.22] | 7 | 86 | 
Cc1cc(N=S(C)(=O)C2CCOCC2)cc2ncnc(Nc3ccc(F)cc3O[C@@H]3COC[C@@H]3O)c12 (mixture of isomers) [Example 2.65] | 10 | 100 | 
O=S1(=Nc2cc(Cl)c3c(Nc4ccc(F)cc4O[C@@H]4COC[C@@H]4O)ncnc3c2)CCC1 (single isomer, unassigned) [Example 1.34] | 3 | 97 | 
CO[C@@H]1COC[C@@H]1Oc1cc(F)ccc1Nc1ncnc2cc(N=S(C)(C)=O)cc(Cl)c12 (racemic) [Example 1.4] | 2 | 97 | 
CC(=O)N1C[C@@H](O)[C@H](Oc2ncccc2Nc2ncnc3cc(N=S(C)(C)=O)cc(C)c23)C1 [Example 2.21] | 179 | 57 | 
CO[C@@H]1COC[C@@H]1Oc1cc(F)ccc1Nc1ncnc2cc(N=S3(=O)CCCC3)cc(C)c12 (racemic) [Example 2.10] | 2 | 105 | 
Cc1cc(N=S2(=O)CCC2)cc2ncnc(Nc3ccc(Cl)nc3O[C@H]3COC[C@@H]3O)c12 [Example 2.43] | 3 | 100 | 
Cc1cc(N=S2(=O)CCCC2)cc2ncnc(Nc3ccc(F)cc3O[C@@H]3CN(C)C[C@H]3O)c12 [Example 2.5] | 17 | 85 | 
CO[C@@H]1CN(C(C)=O)C[C@H]1Oc1ncccc1Nc1ncnc2cc(N=S3(=O)CCCC3)cc(C)c12 [Example 6.8] | 128 | 41 | 
CO[C@@H]1COC[C@@H]1Oc1cc(F)ccc1Nc1ncnc2cc(N=S(C)(C)=O)cc(F)c12 (racemic) [Example 2.57] | 6 | 82 | 
Cc1cc(N=S(C)(C)=O)cc2ncnc(Nc3ccc(F)cc3O[C@@H]3CN(S(C)(=O)=O)C[C@H]3O)c12 [Example 2.11] | 14 | 79 | 
CO[C@@H]1CN(CC(F)F)C[C@H]1Oc1cc(F)ccc1Nc1ncnc2cc(N=S3(=O)CCCC3)cc(C)c12 [Example 5.1] | 16 |  | 373
CC(=O)O[C@@H]1COC[C@@H]1Oc1cc(F)ccc1Nc1ncnc2cc(N=S(C)(C)=O)cc(C)c12 (racemic) [Example 6.9] | 7 | 90 | 

SMILES | IC50 (MNK2a) [nM] | inhibition at 1 µM (MNK1a) [%] | IC50 (MNK1a) [nM]
Cc1cc(N=S2(=O)CCCC2)cc2ncnc(Nc3cccnc3O[C@H]3COC[C@H]3OCCF)c12 (racemic) [Example 2.25] | 2 |  | 46
O=S1(=Nc2cc(F)c3c(Nc4ccc(F)cc4O[C@H]4COC[C@@H]4O)ncnc3c2)CCC1 [Example 2.92] | 2 | 99 | 44
Cc1cc(N=S(C)(C)=O)cc2ncnc(Nc3ccc(Cl)cc3O[C@@H]3COC[C@H]3O)c12 [Example 1.31] | 6 | 91 | 
Cc1cc(N=S(C)(C)=O)cc2ncnc(Nc3cccnc3O[C@@H]3CN(C)C[C@H]3O)c12 [Example 2.19] | 132 | 45 | 
Cc1cc(N=S(C)(=O)C(C)C)cc2ncnc(Nc3ccc(F)cc3O[C@@H]3COC[C@@H]3O)c12 (mixture of isomers) [Example 2.71] | 6 | 94 | 
Cc1cc(N=S2(=O)CCC2)cc2ncnc(Nc3ccc(F)cc3O[C@H]3COC[C@H]3O)c12 (single isomer, unassigned) [Example 1.37] |  | 97 | 
Cc1cc(N=S(C)(C)=O)cc2ncnc(Nc3ccc(F)cc3O[C@H]3COC[C@@H]3O)c12 [Example 2.27] |  | 97 | 
Cc1cc(N=S2(=O)CCCC2)cc2ncnc(Nc3cccnc3O[C@@H]3COC[C@@H]3O)c12 (racemic) [Example 2.3] |  | 102 | 
CO[C@@H]1COC[C@H]1Oc1ncccc1Nc1ncnc2cc(N=S(C)(C)=O)cc(C)c12 (racemic) [Example 2.34] |  | 70 | 
Cc1cc(N=S2(=O)CCC2)cc2ncnc(Nc3ccc(F)cc3O[C@H]3COC[C@@H]3O)c12 [Example 2.36] |  |  | 51
Cc1cc(N=S(C)(=O)C2CC2)cc2ncnc(Nc3ccc(F)cc3O[C@H]3COC[C@@H]3O)c12 (stereo partly drawn) [Example 2.77] |  | 94 | 
CO[C@@H]1COC[C@@H]1Oc1cc(F)ccc1Nc1ncnc2cc(N=S3(=O)CCCC3)cc(Cl)c12 (racemic) [Example 1.6] |  |  | 45
Cc1cc(N=S2(=O)CCC2)cc2ncnc(Nc3cccnc3O[C@@H]3COC[C@H]3O)c12 [Example 2.49] |  | 94 | 
CO[C@@H]1CC[C@@H](Oc2cc(F)ccc2Nc2ncnc3cc(N=S(C)(C)=O)cc(C)c23)CO1 (racemic) [Example 2.63] |  | 102 | 
Cc1cc(N=S2(=O)CCCCC2)cc2ncnc(Nc3cccnc3O[C@H]3COC[C@H]3O)c12 (racemic) [Example 2.31] |  | 94 | 
CO[C@@H]1COC[C@H]1Oc1ncccc1Nc1ncnc2cc(N=S3(=O)CCC3)cc(C)c12 (racemic) [Example 2.35] |  | 97 | 

Next, values leading:

IC50 (MNK2a) [nM] | inhibition at 1 µM (MNK1a) [%] | IC50 (MNK1a) [nM] | SMILES
7 | 102 |  | COc1cc(N=S(C)(C)=O)cc2ncnc(Nc3ccc(F)cc3O[C@H]3COC[C@@H]3O)c12 [Example 9.4]
3 | 100 |  | O=S1(=Nc2cc(Cl)c3c(Nc4ccc(F)cc4O[C@@H]4COC[C@@H]4O)ncnc3c2)CCCC1 (single isomer, unassigned) [Example 14.9]
3 | 104 | 28 | COc1cc(N=S2(=O)CCC2)cc2ncnc(Nc3ccc(F)cc3O[C@H]3COC[C@@H]3O)c12 [Example 9.10]
3 | 99 |  | Cc1cc(N=S2(=O)CCCC2)cc2ncnc(Nc3ccc(F)cc3O[C@@H]3COC[C@@H]3O)c12 (single isomer, unassigned) [Example 14.5]
4 | 96 |  | CC[S@](C)(=O)=Nc1cc(C)c2c(Nc3ccc(F)cc3O[C@H]3COC[C@@H]3O)ncnc2c1 (single isomer, unassigned) [Example 14.11]
6 | 97 |  | COc1cc(N=S2(=O)CCCC2)cc2ncnc(Nc3cccnc3O[C@H]3COC[C@@H]3O)c12 [Example 8.3]
23 | 84 |  | COc1cc(N=S(C)(=O)c2ccccc2)cc2ncnc(Nc3ccc(F)cc3O[C@H]3COC[C@H]3O)c12 (mixture of isomers) [Example 9.21]
8 | 94 |  | CCOc1cc(N=S(C)(C)=O)cc2ncnc(Nc3ccc(F)cc3O[C@H]3COC[C@@H]3O)c12 [Example 9.6]
3 |  | 41 | Cc1cc(N=S(C)(C)=O)cc2ncnc(Nc3ccc(F)cc3O[C@H]3COC[C@H]3OCC(F)F)c12 (racemic) [Example 10.3]
7 | 93 |  | Cc1cc(N=S(C)(C)=O)cc2ncnc(Nc3ccc(F)cc3O[C@H]3COC[C@H]3OC3COC3)c12 (racemic) [Example 7.3]
3 | 94 |  | COc1cc(N=S2(=O)CCCC2)cc2ncnc(Nc3ccc(F)cc3O[C@H]3COC[C@@H]3O)c12 [Example 9.29]
32 | 82 |  | COc1cc(N=S(C)(=O)C2CCOCC2)cc2ncnc(Nc3ccc(F)cc3O[C@H]3COC[C@H]3O)c12 (mixture of isomers) [Example 9.15]
3 | 97 |  | COc1cc(N=S2(=O)CCCC2)cc2ncnc(Nc3ccc(Cl)nc3O[C@H]3COC[C@@H]3O)c12 [Example 8.1]
